In ChEMBL document CHEMBL5665443, “Enzyme Inhibitor Single Concentration assay results for EUbOPEN Chemogenomics Library” (2024):
Where a SMILES comes first, the peptide text is derived from it. [ ]: non-standard residue; d: D form. Arg(Me) = CNC(=N)NCCC[C@H](N)C(=O)O; d4Pal = N[C@H](Cc1ccncc1)C(=O)O; azaGly = NNC(=O)O

What was measured:
[1] = biological target: N-glycosylase/DNA lyase (Homo sapiens) (UniProt O15527);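 note: OGG1 cleavage of a quenched duplex DNA oligonucleotide, coupled to APE1 for strand incision, read as fluorescence at 594 nm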
Description: Inhibition of OGG1 by quantifying inhibition of OGG1-mediated cleavage and dissociation of quenched duplex DNA oligonucleotides, measured as fluorescence at 594 nm. To generate a functional strand incision and increase turn-over this assay is coupled to APE1.

[2] = biological target: Endonuclease 8-like 1 (Homo sapiens) (UniProt Q96FI4); conditions: Hit No;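 note: fluorescence at 594 nm from quenched duplex DNA oligonucleotides released by NEIL1 cleavage and strand separation, reported as reduction of this enzyme activity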
Description: Inhibition of NEIL1 by quantifying inhibition of NEIL1-mediated cleavage and dissociation of quenched duplex DNA oligonucleotides, measured as fluorescence at 594 nm.

[3] = biological target: T1, Endonuclease 8-like 2 (Homo sapiens) (UniProt Q969S2); conditions: Hit No;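 note: fluorescence at 594 nm reports NEIL2 cutting and release of a quenched double-stranded DNA oligo substrate, reduced signal read as inhibition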
T1 sequence (whole entry): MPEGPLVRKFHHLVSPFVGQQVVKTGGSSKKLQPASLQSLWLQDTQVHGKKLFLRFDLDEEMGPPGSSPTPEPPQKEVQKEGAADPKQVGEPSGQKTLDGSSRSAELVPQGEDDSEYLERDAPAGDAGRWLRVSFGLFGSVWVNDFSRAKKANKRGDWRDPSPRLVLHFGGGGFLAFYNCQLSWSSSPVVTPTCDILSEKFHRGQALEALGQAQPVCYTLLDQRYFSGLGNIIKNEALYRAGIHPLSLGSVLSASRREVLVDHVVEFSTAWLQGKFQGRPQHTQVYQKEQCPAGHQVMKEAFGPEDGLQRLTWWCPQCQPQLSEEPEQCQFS
Description: Inhibition of NEIL2 by quantifying inhibition of NEIL2-mediated cleavage and dissociation of quenched duplex DNA oligonucleotides, measured as fluorescence at 594 nm.

[4] = biological target: G/T mismatch-specific thymine DNA glycosylase (Homo sapiens) (UniProt Q13569); conditions: Hit No;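 note: human TDG cleavage of quenched duplex DNA oligonucleotides coupled to APE1, strand release read as fluorescence at 594 nm, inhibition of TDG activity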
Description: Inhibition of TDG by quantifying inhibition of TDG-mediated cleavage and dissociation of quenched duplex DNA oligonucleotides, measured as fluorescence at 594 nm. To generate a functional strand incision and increase turn-over this assay is coupled to APE1.

[5] = biological target: Uracil-DNA glycosylase (Homo sapiens) (UniProt P13051); conditions: Hit No;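 note: UNG excision on a quenched double-stranded DNA oligo probe, with APE1 added for strand incision and turnover, read as fluorescence at 594 nm as strands separate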
Description: Inhibition of UNG by quantifying inhibition of UNG-mediated cleavage and dissociation of quenched duplex DNA oligonucleotides, measured as fluorescence at 594 nm. To generate a functional strand incision and increase turn-over this assay is coupled to APE1.

[6] = biological target: Methyl-CpG-binding domain protein 4 (Homo sapiens) (UniProt O95243); conditions: Hit No;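 note: MBD4 activity read as fluorescence at 594 nm from cleavage and release of a quenched duplex DNA oligonucleotide, with APE1 coupled to incise the strand and raise turnover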
Description: Inhibition of MBD4 by quantifying inhibition of MBD4-mediated cleavage and dissociation of quenched duplex DNA oligonucleotides, measured as fluorescence at 594 nm. To generate a functional strand incision and increase turn-over this assay is coupled to APE1.

[7] = biological target: T2, Endonuclease III-like protein 1 (Homo sapiens) (UniProt P78549); conditions: Hit No;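 note: enzyme assay tracking NTHL1 cutting and release of a quenched double-stranded DNA oligo substrate, read as fluorescence at 594 nm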
T2 sequence (whole entry): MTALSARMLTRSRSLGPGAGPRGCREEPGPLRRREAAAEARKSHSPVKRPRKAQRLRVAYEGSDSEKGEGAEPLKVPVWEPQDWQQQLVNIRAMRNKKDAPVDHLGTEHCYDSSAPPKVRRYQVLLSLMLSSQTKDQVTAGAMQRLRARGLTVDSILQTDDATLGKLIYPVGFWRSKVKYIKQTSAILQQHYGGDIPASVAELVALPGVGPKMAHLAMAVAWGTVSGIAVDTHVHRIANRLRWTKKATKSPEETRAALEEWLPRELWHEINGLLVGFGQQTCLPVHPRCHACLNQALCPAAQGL
Description: Inhibition of NTHL1 by quantifying inhibition of NTHL1-mediated cleavage and dissociation of quenched duplex DNA oligonucleotides, measured as fluorescence at 594 nm.

[8] = biological target: T3, Single-strand selective monofunctional uracil DNA glycosylase (Homo sapiens) (UniProt Q53HV7); conditions: Hit No;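 note: enzymatic SMUG1 assay coupled with APE1, reading fluorescence at 594 nm released when a quenched double-stranded DNA oligonucleotide substrate is cleaved and separated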
T3 sequence (whole entry): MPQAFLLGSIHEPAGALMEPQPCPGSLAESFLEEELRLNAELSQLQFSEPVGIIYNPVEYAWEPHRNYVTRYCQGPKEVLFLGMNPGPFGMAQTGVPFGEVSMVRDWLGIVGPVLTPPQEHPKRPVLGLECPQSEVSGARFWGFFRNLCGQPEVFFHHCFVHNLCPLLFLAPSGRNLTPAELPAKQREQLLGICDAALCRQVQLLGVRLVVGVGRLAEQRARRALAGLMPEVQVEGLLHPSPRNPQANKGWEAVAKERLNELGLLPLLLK
Description: Inhibition of SMUG1 by quantifying inhibition of SMUG1-mediated cleavage and dissociation of quenched duplex DNA oligonucleotides, measured as fluorescence at 594 nm. To generate a functional strand incision and increase turn-over this assay is coupled to APE1.

[9] = Compound Concentration 10.0 uM, Hit No
[10] = Compound Concentration 1.0 uM, Hit No

Chain of N-glycosylase/DNA lyase (Homo sapiens) (O15527 whole entry): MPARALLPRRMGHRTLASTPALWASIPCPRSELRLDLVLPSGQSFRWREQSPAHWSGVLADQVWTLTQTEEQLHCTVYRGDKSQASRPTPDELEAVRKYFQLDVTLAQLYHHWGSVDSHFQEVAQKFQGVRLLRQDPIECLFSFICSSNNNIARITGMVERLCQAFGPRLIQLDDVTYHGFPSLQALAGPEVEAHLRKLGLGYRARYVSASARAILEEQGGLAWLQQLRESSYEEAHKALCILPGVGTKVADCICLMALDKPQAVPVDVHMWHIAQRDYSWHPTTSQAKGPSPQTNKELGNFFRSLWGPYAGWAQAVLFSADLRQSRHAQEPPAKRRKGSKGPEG
Chain of G/T mismatch-specific thymine DNA glycosylase (Homo sapiens) (Q13569 whole entry): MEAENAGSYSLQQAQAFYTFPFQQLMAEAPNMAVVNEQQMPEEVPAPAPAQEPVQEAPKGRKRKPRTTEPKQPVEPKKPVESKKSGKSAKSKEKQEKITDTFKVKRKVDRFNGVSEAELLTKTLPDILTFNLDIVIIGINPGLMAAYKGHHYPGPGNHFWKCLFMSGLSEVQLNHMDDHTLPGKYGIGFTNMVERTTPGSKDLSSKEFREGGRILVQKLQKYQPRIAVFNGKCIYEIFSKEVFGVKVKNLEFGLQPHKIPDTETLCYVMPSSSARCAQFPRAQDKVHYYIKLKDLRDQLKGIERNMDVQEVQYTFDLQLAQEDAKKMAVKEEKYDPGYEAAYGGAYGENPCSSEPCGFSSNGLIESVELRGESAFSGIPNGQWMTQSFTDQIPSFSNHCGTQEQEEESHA
Chain of Methyl-CpG-binding domain protein 4 (Homo sapiens) (O95243 whole entry, the tested form may be a part): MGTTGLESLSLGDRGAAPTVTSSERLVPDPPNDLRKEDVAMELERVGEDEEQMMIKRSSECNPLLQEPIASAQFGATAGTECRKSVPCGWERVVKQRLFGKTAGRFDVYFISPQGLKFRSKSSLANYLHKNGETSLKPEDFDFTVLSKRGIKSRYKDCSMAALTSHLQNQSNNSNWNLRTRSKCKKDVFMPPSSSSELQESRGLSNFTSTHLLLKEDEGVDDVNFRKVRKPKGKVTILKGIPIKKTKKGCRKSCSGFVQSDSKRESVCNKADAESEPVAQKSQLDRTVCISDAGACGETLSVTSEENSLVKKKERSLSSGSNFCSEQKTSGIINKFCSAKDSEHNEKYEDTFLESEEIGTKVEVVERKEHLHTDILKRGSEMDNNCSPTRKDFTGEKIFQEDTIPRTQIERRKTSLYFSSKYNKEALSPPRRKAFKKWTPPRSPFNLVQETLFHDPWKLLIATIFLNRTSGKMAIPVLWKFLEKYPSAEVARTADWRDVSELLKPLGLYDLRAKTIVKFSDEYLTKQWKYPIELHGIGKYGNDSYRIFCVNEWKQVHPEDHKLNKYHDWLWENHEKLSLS
Chain of Endonuclease 8-like 1 (Homo sapiens) (Q96FI4 whole entry): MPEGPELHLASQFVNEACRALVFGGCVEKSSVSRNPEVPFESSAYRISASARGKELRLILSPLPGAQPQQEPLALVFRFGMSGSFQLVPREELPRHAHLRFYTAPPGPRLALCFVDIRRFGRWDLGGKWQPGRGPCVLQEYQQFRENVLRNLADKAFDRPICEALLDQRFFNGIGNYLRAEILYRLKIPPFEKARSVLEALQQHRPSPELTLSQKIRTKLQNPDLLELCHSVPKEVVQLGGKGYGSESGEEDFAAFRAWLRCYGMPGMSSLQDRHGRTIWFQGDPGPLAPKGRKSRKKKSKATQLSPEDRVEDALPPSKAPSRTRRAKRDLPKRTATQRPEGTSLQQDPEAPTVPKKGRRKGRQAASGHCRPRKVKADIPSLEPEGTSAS
Chain of Uracil-DNA glycosylase (Homo sapiens) (P13051 whole entry, the tested form may be a part): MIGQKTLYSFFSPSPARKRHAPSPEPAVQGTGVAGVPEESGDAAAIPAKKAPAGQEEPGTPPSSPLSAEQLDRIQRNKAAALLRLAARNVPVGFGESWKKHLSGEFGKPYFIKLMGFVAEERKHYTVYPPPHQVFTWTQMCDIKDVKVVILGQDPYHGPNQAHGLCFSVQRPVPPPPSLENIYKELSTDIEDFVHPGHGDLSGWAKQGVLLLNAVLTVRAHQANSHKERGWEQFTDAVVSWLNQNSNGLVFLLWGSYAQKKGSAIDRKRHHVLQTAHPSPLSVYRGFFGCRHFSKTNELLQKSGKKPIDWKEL

| Compound | inhibition [1, 9] | inhibition ([2]; Compound Concentration 10.0 uM) | inhibition ([3]; Compound Concentration 10.0 uM) | inhibition ([4]; Compound Concentration 10.0 uM) | inhibition ([5]; Compound Concentration 10.0 uM) | inhibition ([6]; Compound Concentration 10.0 uM) | inhibition ([7]; Compound Concentration 10.0 uM) | inhibition ([8]; Compound Concentration 10.0 uM) | inhibition ([1]; Compound Concentration 10.0 uM, Hit Yes) | inhibition [1, 10] | inhibition ([2]; Compound Concentration 1.0 uM) | inhibition ([3]; Compound Concentration 1.0 uM) | inhibition ([4]; Compound Concentration 1.0 uM) | inhibition ([5]; Compound Concentration 1.0 uM) | inhibition ([6]; Compound Concentration 1.0 uM) | inhibition ([7]; Compound Concentration 1.0 uM) | inhibition ([8]; Compound Concentration 1.0 uM) |
| --- | --- | --- | --- | --- | --- | --- | --- | --- | --- | --- | --- | --- | --- | --- | --- | --- | --- |
| CCOC(=O)N1CCC(NS(=O)(=O)c2ccc(NC(=O)c3ccccc3C)c3ccccc23)CC1 | 6.16% | 16.8% | 3.73% | 4.53% | -2.92% | -4.31% | -6.86% | -0.636% |  |  |  |  |  |  |  |  |  |
| COc1cccc(Cn2cc(C(=O)Nc3ccc(C)c(S(=O)(=O)N4CCOCC4)c3)c(-c3ccc(C)cc3)n2)c1 | 11.1% | -9.23% | -7.38% | 97.5% | -6.33% | 52.8% | 1.34% | 2.42% |  |  |  |  |  |  |  |  |  |
| O=C(O)CCC/C=C\CC1C(O)CC(O)C1/C=C/C(O)COc1cccc(Cl)c1 (stereo unspecified) | -6.16% | -0.0556% | -0.234% | 2.98% | -7.78% | -2.64% | 21% | -7.54% |  |  |  |  |  |  |  |  |  |
| CO[C@H]1CC[C@H](CNc2ccc(S(=O)(=O)NC(=O)c3ccc(N4CCN(CC5=C(c6ccc(Cl)cc6)CC(C)(C)CC5)CC4)cc3Oc3cnc4[nH]ccc4c3)cc2[N+](=O)[O-])CC1 | 62% | -6.8% | 2.57% | 47.9% | 3.44% | 55.7% | -7.86% | 17.9% |  |  |  |  |  |  |  |  |  |
| O=C(O)c1ccc2cc(-c3ccc(O)c(C45CC6CC(CC(C6)C4)C5)c3)ccc2c1 |  | -4.23% | -9.42% | 50.7% | 4.34% | 57.8% | -1.29% | 17.5% | 85.9% |  |  |  |  |  |  |  |  |
| O=C(NOC[C@H](O)CO)c1ccc(F)c(F)c1Nc1ccc(I)cc1F |  |  |  |  |  |  |  |  |  | -3.87% | 6.08% | -6.76% | 39.9% | -1.39% | -6.44% | 5.67% | -2.11% |
| CCOC(=O)c1ccc(C#Cc2ccc3c(c2)C(C)(C)CCS3)nc1 | 22.7% | 1.22% | 2.06% | 98.1% | -5.12% | 50.8% | 3.31% | 8.77% |  |  |  |  |  |  |  |  |  |
| CNC(=O)c1cc(C(=O)N[C@H]2[C@@H]3COC[C@@H]32)cc2c1O[C@H](CF)[C@H]2c1ccccc1 | 4.16% | -1.35% | 5.12% | 40.6% | 2.78% | 47.2% | -3.26% | 8.89% |  |  |  |  |  |  |  |  |  |
| O=C(NCc1ncc(C(F)(F)F)cc1Cl)c1ccc2c(c1)C1(CCS(=O)(=O)CC1)[C@@H](C1CC1)N2S(=O)(=O)c1ccc(F)cc1 | 3.62% | -9.38% | -9.67% | 36.9% | -1.13% | 54.9% | -8.52% | 6.37% |  |  |  |  |  |  |  |  |  |
| CNC(=O)c1cc(C(=O)NC2CC2)cn(Cc2ccccc2)c1=O | 10.8% | 8.49% | -1.25% | 29.8% | -2.05% | 59.4% | -1.29% | -2.99% |  |  |  |  |  |  |  |  |  |
| CCn1c(CNC(=O)c2ncc(C)nc2N)[n+](CC)c2ccc(C(=O)N(C)CCN(C)C)cc21 | 14.2% | -4.53% | 1.3% | 100% | -0.563% | 47.5% | -6.55% | 1.28% |  |  |  |  |  |  |  |  |  |
| CNC(=N)NCCC[C@H](NC(=O)[C@H](CC(C)C)NC(=O)NNC(=O)[C@H](Cc1ccccc1)NC(=O)[C@H](CO)NC(=O)[C@H](CC(N)=O)NC(=O)[C@@H](Cc1ccncc1)NC(=O)[C@H](N)Cc1ccc(O)cc1)C(=O)N[C@@H](Cc1ccccc1)C(N)=O (H-[dY][d4Pal]NSF[azaGly]L[Arg(Me)]F-NH2) | -3.16% | -4.68% | 6.4% | 52.5% | 6.61% | 54% | -1.29% | 19.5% |  |  |  |  |  |  |  |  |  |
| Cc1cc(C)c(-n2ccn3nc(-c4cccnc4)cc23)cc1NC(=O)c1cc(C#N)cc(S(F)(F)(F)(F)F)c1 |  |  |  |  |  |  |  |  |  | 1.96% | -7.27% | -7.9% | 50.8% | 1.49% | 40% | -3.66% | 7.64% |
| Cc1ccc2nc(CNCCCOc3ccccc3)cc(O)c2c1 | 11.7% | 0.467% | -8.14% | 34.3% | -1.26% | 18.2% | 2% | 6.33% |  |  |  |  |  |  |  |  |  |
| O=C1NCN(c2ccccc2)C12CCN(CC1COc3ccccc3O1)CC2 (stereo unspecified) | -5.28% | -5.84% | -3.23% | 2.98% | -8.19% | -3.04% | 2.66% | 1.76% |  |  |  |  |  |  |  |  |  |
| Cc1cc(C(=O)N2CCN(C3CN(C(=O)c4ccc(-c5ccccc5)cc4)C3)CC2)no1 | -2.62% | -3.92% | -4.32% | 35.7% | 2.8% | 49.9% | 1.34% | 21.1% |  |  |  |  |  |  |  |  |  |
| CCCOc1ccc([C@H]2[C@H](C(=O)O)[C@@H](c3ccc4c(c3)OCO4)CN2CC(=O)Nc2c(CC)cccc2CC)cc1 |  |  |  |  |  |  |  |  |  | 10.2% | 2.13% | 0.276% | 57.6% | 6.95% | 70.6% | -5.23% | 23% |
